# In patent US20040224878A1, “Fertilization of aged oocytes” (priority 2000, published 2004):
# Experiments:
# [1] = test system: mouse cumulus-oocyte complex (COC); details: addition to the culture medium of mouse COC; cited from earlier work
# [2] = test system: aged oocytes; test: Cell cycle progression (GV, GVBD, PB) of young and aged oocytes after 22 h culture; assay type: cell-based, CBA/Ca mouse; details: 10 μM FF-MAS in Hx-medium, aged (35-38 week old) vs young (5-6 weeks old) oocytes, FIG. 1
# Procedure: The CBA/Ca mouse provides a model system for studies on the maternal age effect of oocytes (7). This model is characterised by its relatively limited pool of follicles with low number of aged oocytes in the sexually mature adult female, similar to the human. All the following studies were carried out in the CBA/Ca mice. Animals were kept under controlled lighting and temperature.
# Oocytes from young (5-6 weeks old) and aged (35-38 week old) CBA/Ca mice in the diestrus stage of the cycle were investigated. Oocytes were isolated in Hx-medium (see below) under a stereo microscope by manual rupture of the follicles using a pair of 27 gauge needles. […]
# (a) By the end of the culture period cell cycle progression was analysed by counting the number of oocytes with germinal vesicle (GV) or germinal vesicle breakdown (GVB) and those with polar body (PB) by using a stereo microscope or an inverted microscope with differential interference contrast equipment. The percentage of oocytes with GV, GVBD and PB per total number of oocytes, respectively, was calculated in the 4 treatment groups of young and aged oocytes, respectively.
# [3] = test system: aged metaphase 11 oocytes; test: Cytogenetic analysis (chromosome count, hyperploidy) of cultured oocytes; assay type: cell-based, CBA/Ca mouse; details: 10 μM FF-MAS given alone or in combination with Hx, 22 hours culture, FIG. 2
# Procedure: The CBA/Ca mouse provides a model system for studies on the maternal age effect of oocytes (7). This model is characterised by its relatively limited pool of follicles with low number of aged oocytes in the sexually mature adult female, similar to the human. All the following studies were carried out in the CBA/Ca mice. Animals were kept under controlled lighting and temperature. Oocytes from young (5-6 weeks old) and aged (35-38 week old) CBA/Ca mice in the diestrus stage of the cycle were investigated. Oocytes were isolated in Hx-medium (see below) under a stereo microscope by manual rupture of the follicles using a pair of 27 gauge needles. Spherical, naked oocytes (NO) displaying an intact germinal vesicle (GV) were placed in a-minimum essential medium (x-MEM without ribonucleosides, Gibco BRL, Cat. No. 22561) supplemented with 3 mM hypoxanthine (Sigma Cat. No. H-9377), 8 mg/ml Human Serum Albumin (HSA, State Serum Institute, Denmark), 0.23 mM pyruvate (Sigma, Cat. No. S-8636), 2 mM glutamine (Flow Cat. No. 16-801), 100 IU/ml penicillin and 100 μg/ml streptomycin (Flow, Cat No. 16-700). This medium was designated Hx-medium. […] The number of chromosomes was counted in each oocyte. […]
# [4] = test system: oocytes; details: mouse; cited from earlier work
# [5] = test system: human oocytes; details: concentrations around those observed in vivo, culture medium of human oocytes during IVF; cited from earlier work
molecule,measurement,setting,value
Cl.Cl.Clc1ccccc1CNCC1CCC(CNCc2ccccc2Cl)CC1 (centres unmarked) [AY9944],accumulation of FF-MAS,[1],has the capacity to induce accumulation of FF-MAS
"CC(C)=CCC[C@@H](C)[C@H]1CC=C2C3=C(CC[C@@]21C)[C@@]1(C)CC[C@H](O)C(C)(C)[C@@H]1CC3 [FF-MAS, 4,4-dimethyl-5α-cholesta-8,14,24-triene-31-ol]",maturation to metaphase 11 (cell cycle progression),[2],more successful to mature to metaphase 11 than young oocytes
same,"numerical aberration rate, e.g. hyperploidy",[3],reduces numerical aberration rate
same,nuclear (meiotic) and cytoplasmic maturation,[4],induces nuclear (meiotic) and cytoplasmic maturation
"EGF: growth factor enhancing endogenous production of MAS in the cumulus enclosed oocyte (NSDSECPLSHDGYCLHDGVCMYIEALDKYACNCVVGYIGERCQYRDLKWWELR; UniProt P01133 971-1023, looked up)",implantation rates of the retrieved oocytes,[5],significant improved implantation rates
